Assay results: article PMC10746543, “Design principles for cyclin K molecular glue degraders” (Nature Chemical Biology, 2023)
Several values for one entry are separate records, joined by “and”; a condition that tells them apart may be missing. Equal values may be shown once.

Columns and labels:
CDK12–cyclin K and DDB1 = molecular target: T1, CDK12–cyclin K and DDB1 (Homo sapiens, UniProt Q16531+Q9NYV4, K965R); experiment: TR-FRET ternary complex formation assay (compound titration); format: binding; conditions: for TR-FRET signal at compound concentration: replicate titrations
T1 construct: His6–CDK12 (a.a. 713–1,052); full-length or beta-propeller B domain deletion (ΔBPB: a.a. 396–705 deleted) constructs of His6–DDB1ΔBPB, StrepII–Avi–DDB1, or His6–Spy–DDB1; made in house; host or cells: Trichoplusia ni High Five insect cells (baculovirus)
T1 sequence (Q9NYV4 713-1052 K965R): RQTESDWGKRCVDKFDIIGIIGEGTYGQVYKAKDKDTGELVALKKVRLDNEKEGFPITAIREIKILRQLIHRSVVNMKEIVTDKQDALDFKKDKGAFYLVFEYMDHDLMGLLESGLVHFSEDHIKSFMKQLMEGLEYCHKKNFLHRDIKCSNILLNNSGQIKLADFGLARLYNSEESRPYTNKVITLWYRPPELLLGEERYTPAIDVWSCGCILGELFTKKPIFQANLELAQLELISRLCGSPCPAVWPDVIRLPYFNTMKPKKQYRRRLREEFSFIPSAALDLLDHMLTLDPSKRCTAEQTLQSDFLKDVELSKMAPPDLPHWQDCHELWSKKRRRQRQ
T1 sequence (O75909 1-267 partner): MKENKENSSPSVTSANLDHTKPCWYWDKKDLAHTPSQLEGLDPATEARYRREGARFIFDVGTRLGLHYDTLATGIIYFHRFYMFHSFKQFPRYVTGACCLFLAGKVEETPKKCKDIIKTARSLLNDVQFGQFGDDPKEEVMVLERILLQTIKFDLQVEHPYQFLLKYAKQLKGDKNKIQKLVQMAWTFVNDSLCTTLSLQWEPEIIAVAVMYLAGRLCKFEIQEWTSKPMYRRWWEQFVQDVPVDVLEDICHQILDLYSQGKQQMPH
T1 sequence (Q16531 whole entry): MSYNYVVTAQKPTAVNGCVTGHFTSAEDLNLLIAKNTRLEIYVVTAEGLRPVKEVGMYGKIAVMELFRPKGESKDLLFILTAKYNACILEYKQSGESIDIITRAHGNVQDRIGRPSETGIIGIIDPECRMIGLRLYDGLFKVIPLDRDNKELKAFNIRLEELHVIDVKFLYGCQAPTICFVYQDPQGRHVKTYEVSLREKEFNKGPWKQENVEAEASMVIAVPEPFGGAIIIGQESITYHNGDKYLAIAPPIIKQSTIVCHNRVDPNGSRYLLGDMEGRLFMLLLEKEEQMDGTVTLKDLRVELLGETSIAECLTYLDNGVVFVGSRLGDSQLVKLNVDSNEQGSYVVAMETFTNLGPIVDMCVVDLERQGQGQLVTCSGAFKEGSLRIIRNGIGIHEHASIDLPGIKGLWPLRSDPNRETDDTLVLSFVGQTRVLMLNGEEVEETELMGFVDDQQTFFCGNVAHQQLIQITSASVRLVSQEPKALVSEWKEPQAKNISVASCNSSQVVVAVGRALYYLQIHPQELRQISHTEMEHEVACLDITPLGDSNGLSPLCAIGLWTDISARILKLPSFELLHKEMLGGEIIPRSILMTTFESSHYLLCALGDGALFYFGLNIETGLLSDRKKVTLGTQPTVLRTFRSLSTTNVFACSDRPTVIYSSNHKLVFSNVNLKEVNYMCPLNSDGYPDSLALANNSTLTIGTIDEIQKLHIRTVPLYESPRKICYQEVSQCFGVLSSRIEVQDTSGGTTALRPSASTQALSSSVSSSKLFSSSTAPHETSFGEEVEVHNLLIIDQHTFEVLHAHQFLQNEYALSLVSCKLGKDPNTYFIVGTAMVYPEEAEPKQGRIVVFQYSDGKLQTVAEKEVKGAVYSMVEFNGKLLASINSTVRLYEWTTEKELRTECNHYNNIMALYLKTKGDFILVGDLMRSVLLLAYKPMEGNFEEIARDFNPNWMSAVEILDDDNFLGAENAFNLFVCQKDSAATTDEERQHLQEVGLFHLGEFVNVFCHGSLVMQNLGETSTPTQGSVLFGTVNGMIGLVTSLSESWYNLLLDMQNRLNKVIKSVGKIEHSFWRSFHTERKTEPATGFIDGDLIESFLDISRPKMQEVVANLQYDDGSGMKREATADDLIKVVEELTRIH
How it was run: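 A time delay of 70 μs preceded acquisition, limiting background fluorescence; the ratio of emission at 520 versus 490 nm gave the TR-FRET value.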

cyclin K = experiment: Label-free quantitative mass spectrometry in MDA-MB-231 cells, cyclin K; format: cell-based, human
Experimental: (§1) MDA-MB-231 cells were treated with DMSO or a cyclin K degrader compound at 1 µM for 5 h. Cells were collected by centrifugation and washed with phosphate-buffered saline before snap freezing in liquid nitrogen. Cells were lysed by addition of lysis buffer (8 M urea, 50 mM NaCl, 50 mM 4-(2-hydroxyethyl)-1-piperazineethanesulfonic acid (EPPS) pH 8.5, and protease and phosphatase inhibitors) and homogenization by bead beating (BioSpec) for three repeats of 30 s at 2,400 rpm. Bradford assay was used to determine the final protein concentration in the clarified cell lysate. Then 50 µg of protein for each sample was reduced, alkylated and precipitated using methanol/chloroform as previously described, and the resulting washed precipitated protein was allowed to air dry. Precipitated protein was resuspended in 4 M urea, 50 mM HEPES pH 7.4, followed by dilution to 1 M urea with the addition of 200 mM EPPS, pH 8. Proteins were first digested with LysC (1:50; enzyme:protein) for 12 h at room temperature. The LysC digestion was diluted to 0.5 M urea with 200 mM EPPS pH 8 followed by digestion with trypsin (1:50; enzyme:protein) for 6 h at 37 °C. Sample digests were acidified with formic acid to a pH of 2–3 before desalting using C18 solid phase extraction plates (SOLA, Thermo Fisher Scientific). Desalted peptides were dried in a vacuum-centrifuged and reconstituted in 0.1% formic acid for liquid chromatography–mass spectrometry analysis.
(§2) Data were collected using a TimsTOF Pro2 (Bruker Daltonics) coupled to a nanoElute LC pump (Bruker Daltonics) via a CaptiveSpray nano-electrospray source. Peptides were separated on a reversed-phase C18 column (25 cm × 75 µm inner diameter, […], IonOpticks) containing an integrated captive spray emitter. Peptides were separated using a 50 min gradient of 2–30% buffer B (acetonitrile in 0.1% formic acid) with a flow rate of 250 nl min^−1 and column temperature maintained at 50 °C.
(§3) Data-dependent acquisition (DDA) was performed in Parallel Accumulation-Serial Fragmentation (PASEF) mode to determine effective ion mobility windows for downstream diaPASEF data collection. The ddaPASEF parameters included: 100% duty cycle using accumulation and ramp times of 50 ms each, one Trapped Ion Mobility Spectrometry(TIMS)-MS scan and ten PASEF ramps per acquisition cycle. The TIMS-MS survey scan was acquired between 100 m/z and 1,700 m/z and 1/K0 of 0.7–1.3 V s cm^−2. Precursors with one to five charges were selected, and those that reached an intensity threshold of 20,000 arbitrary units were actively excluded for 0.4 min. The quadrupole isolation width was set to 2 m/z for m/z < 700 and 3 m/z for m/z > 800, with the m/z between 700 m/z and 800 m/z being interpolated linearly. […] To perform diaPASEF, the precursor distribution in the DDA m/z-ion mobility plane was used to design an acquisition scheme for data-independent acquisition (DIA) data collection that included two windows in each 50 ms diaPASEF scan. Data were acquired using 16 of these 25 Da precursor double window scans (creating 32 windows) that covered the diagonal scan line for doubly and triply charged precursors, with singly charged precursors able to be excluded by their position in the m/z-ion mobility plane. These precursor isolation windows were defined between 400 m/z and 1,200 m/z and 1/K0 of 0.7–1.3 V s cm^−2.
(§4) DirectDIA mode includes first extracting the DIA data into a collection of MS2 spectra which are searched using Spectronaut’s Pulsar search engine. The search results are then used to generate a spectral library which is then employed for the targeted analysis of the DIA data. MS/MS spectra were searched against a Swissprot human database (January 2021). Database search criteria largely followed the default settings for directDIA including: tryptic with two missed cleavages, fixed carbomidomethylation of cysteine, and variable oxidation of methionine and acetylation of protein N-termini and precursor Q-value (FDR) cut-off of 0.01. […]

CDK12 = molecular target: T2, CDK12 (Homo sapiens, UniProt Q16531+Q9NYV4); experiment: Label-free quantitative mass spectrometry in MDA-MB-231 cells, CDK12; format: cell-based
T2 construct: endogenous in cells; host or cells: MDA-MB-231
T2 sequence (Q9NYV4 whole entry): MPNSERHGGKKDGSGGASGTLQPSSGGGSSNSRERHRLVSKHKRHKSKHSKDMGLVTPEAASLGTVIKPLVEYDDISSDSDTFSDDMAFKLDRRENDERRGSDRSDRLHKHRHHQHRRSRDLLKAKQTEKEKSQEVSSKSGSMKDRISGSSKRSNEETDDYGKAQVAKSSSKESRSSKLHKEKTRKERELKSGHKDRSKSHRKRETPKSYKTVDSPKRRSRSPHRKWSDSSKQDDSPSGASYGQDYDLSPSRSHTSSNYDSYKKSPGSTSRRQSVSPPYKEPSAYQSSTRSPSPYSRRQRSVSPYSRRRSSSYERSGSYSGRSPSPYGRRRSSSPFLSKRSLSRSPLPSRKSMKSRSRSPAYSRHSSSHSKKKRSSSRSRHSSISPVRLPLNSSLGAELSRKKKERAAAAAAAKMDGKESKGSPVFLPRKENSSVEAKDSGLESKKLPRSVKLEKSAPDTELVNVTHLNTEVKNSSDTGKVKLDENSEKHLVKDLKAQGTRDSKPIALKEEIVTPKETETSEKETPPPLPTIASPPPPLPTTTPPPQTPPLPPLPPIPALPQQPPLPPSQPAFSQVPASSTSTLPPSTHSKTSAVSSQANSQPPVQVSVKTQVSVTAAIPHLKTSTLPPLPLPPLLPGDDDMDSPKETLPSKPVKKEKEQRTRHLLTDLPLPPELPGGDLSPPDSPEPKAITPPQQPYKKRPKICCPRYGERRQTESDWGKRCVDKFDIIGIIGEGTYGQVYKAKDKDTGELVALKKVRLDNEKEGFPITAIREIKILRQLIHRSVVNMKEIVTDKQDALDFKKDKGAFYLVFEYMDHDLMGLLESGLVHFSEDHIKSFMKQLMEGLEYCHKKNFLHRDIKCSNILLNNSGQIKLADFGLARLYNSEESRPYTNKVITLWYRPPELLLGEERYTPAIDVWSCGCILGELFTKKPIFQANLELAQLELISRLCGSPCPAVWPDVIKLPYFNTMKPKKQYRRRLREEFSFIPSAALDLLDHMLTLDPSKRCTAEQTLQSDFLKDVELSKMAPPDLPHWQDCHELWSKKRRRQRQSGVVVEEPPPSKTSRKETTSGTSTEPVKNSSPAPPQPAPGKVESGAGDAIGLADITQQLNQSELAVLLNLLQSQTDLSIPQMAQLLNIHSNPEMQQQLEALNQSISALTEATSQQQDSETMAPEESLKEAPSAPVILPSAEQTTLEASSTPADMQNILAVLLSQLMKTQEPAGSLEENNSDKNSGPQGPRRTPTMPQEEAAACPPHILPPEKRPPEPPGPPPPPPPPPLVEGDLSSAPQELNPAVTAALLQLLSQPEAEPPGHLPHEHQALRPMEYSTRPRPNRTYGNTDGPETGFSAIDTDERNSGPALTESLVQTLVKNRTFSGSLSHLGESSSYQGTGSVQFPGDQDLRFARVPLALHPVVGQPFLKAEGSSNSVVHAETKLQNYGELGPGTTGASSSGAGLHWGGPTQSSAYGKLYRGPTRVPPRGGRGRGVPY
T2 sequence (O75909 whole entry partner): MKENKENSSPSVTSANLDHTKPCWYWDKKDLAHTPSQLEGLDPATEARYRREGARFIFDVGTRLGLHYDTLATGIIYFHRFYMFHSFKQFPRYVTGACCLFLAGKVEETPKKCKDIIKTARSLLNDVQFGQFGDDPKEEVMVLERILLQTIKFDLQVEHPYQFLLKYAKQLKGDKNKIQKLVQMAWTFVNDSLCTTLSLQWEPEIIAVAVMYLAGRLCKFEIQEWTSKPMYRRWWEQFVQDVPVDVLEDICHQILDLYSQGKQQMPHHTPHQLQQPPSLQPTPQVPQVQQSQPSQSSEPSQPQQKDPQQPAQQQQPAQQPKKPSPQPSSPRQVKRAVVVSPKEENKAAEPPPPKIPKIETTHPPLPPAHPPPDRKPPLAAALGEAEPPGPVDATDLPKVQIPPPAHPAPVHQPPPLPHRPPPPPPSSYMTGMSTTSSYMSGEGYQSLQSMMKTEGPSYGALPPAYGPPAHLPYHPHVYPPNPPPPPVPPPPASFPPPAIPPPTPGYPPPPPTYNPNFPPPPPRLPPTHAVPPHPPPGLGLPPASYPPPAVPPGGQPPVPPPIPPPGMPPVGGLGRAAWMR
T2 sequence (Q16531 2-1140 limits assumed): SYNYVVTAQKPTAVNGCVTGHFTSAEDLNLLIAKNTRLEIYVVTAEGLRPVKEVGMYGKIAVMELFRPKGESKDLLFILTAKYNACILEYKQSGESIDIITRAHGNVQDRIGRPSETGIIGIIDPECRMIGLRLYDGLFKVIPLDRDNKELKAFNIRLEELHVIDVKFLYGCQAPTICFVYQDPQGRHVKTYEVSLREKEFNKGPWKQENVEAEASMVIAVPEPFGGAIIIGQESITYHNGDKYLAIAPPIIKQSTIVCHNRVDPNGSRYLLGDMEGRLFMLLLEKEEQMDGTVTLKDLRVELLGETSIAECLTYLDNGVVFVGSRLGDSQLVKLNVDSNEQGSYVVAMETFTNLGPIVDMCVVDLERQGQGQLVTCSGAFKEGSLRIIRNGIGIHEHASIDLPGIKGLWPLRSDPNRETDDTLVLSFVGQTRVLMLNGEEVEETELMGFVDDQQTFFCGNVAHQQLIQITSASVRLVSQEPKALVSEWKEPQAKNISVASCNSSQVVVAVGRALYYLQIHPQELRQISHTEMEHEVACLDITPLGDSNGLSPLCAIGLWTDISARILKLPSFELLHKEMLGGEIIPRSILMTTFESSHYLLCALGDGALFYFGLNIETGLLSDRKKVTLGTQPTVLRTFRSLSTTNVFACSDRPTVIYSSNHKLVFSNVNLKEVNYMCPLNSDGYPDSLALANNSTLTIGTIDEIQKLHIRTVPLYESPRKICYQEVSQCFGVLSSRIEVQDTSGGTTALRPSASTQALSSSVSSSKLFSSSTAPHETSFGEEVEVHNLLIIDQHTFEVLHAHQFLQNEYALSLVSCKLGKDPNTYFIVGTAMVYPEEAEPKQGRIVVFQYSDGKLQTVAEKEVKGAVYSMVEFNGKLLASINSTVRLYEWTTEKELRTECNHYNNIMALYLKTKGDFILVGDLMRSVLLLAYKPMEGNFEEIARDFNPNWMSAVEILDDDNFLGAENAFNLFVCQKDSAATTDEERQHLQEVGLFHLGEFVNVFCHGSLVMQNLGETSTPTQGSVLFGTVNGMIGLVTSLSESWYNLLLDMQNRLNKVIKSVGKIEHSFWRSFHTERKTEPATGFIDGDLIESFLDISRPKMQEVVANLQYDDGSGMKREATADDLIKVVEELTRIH
Experimental: as §1, §2, §3, §4

[1] = compound concentration 125.28 nM
[2] = compound concentration 244.8 nM
[3] = compound concentration 993.601 nM
[4] = compound concentration 2001.6 nM
[5] = label-free quantitative MS, replicate values
[6] = normalised to DMSO = 1, replicate values

CDK12 peptide count (CDK12; [5]): 540.299 and 612.59 | CDK12 peptide count (DMSO-normalised) (CDK12; [6]): 0.6003 and 0.6327
SMILES: CCC(CO)Nc1nc(NCc2ccc(-c3ccccn3)cc2)c2ncn(C(C)C)c2n1 (stereo not shown) [CR8, reference compound]
TR-FRET signal at compound concentration 62.6401 nM (CDK12–cyclin K and DDB1; compound concentration 62.6401 nM, raw replicate titration data): 3.992 and 3.667 and 3.67 (2×) and 3.796 and 3.836 and 3.683 and 3.652 and 3.6831 and 3.54 and 3.542 and 3.62 and 3.792 and 3.69 and 3.855 and 3.914 and 3.849 and 3.7896 | TR-FRET signal at compound concentration 62.6401 nM (CDK12–cyclin K and DDB1; compound concentration 62.6401 nM, raw titration data): 3.992 and 3.667 and 3.67 (2×) and 3.796 and 3.836 and 3.683 and 3.652 and 3.6831 and 3.54 and 3.542 and 3.62 and 3.792 and 3.69 and 3.855 and 3.914 and 3.849 and 3.7896 | TR-FRET signal at compound concentration (CDK12–cyclin K and DDB1; compound concentration 62.6401 nM): 3.992 and 3.667 and 3.67 (2×) and 3.796 and 3.836 and 3.683 and 3.652 | TR-FRET signal, individual replicate (CDK12–cyclin K and DDB1; [1]): 4.095 and 3.873 and 3.877 and 4.034 and 3.962 and 3.842 and 3.836 and 3.935 | TR-FRET signal at compound concentration 125.28 nM (CDK12–cyclin K and DDB1; compound concentration 125.28 nM, raw replicate titration data): 4.095 and 3.873 and 3.877 and 4.034 and 3.962 and 3.842 and 3.836 and 3.935 and 3.986 and 3.722 and 3.719 and 3.7404 and 3.636 and 3.869 and 4.026 and 4.013 and 4.003 and 3.8874 | TR-FRET signal at compound concentration 125.28 nM (CDK12–cyclin K and DDB1; compound concentration 125.28 nM, raw titration data): 4.095 and 3.873 and 3.877 and 4.034 and 3.962 and 3.842 and 3.836 and 3.935 and 3.986 and 3.722 and 3.719 and 3.7404 and 3.636 and 3.869 and 4.026 and 4.013 and 4.003 and 3.8874 | TR-FRET signal at compound concentration (CDK12–cyclin K and DDB1; [1]): 4.095 and 3.873 and 3.877 and 4.034 and 3.962 and 3.842 and 3.836 and 3.935 | TR-FRET signal, individual replicate (CDK12–cyclin K and DDB1; [2]): 4.223 and 4.06 and 4.046 and 4.132 and 4.096 and 3.922 and 3.897 and 4.118 | TR-FRET signal at compound concentration 244.8 nM (CDK12–cyclin K and DDB1; compound concentration 244.8 nM, raw replicate titration data): 4.223 and 4.06 and 4.046 and 4.132 and 4.096 and 3.922 and 3.897 and 4.118 and 4.095 and 3.806 and 3.805 and 3.852 and 3.955 and 3.967 and 4.129 and 4.013 and 4.0726 and 3.918 | TR-FRET signal at compound concentration 244.8 nM (CDK12–cyclin K and DDB1; compound concentration 244.8 nM, raw titration data): 4.223 and 4.06 and 4.046 and 4.132 and 4.096 and 3.922 and 3.897 and 4.118 and 4.095 and 3.806 and 3.805 and 3.852 and 3.955 and 3.967 and 4.129 and 4.013 and 4.0726 and 3.918 | TR-FRET signal at compound concentration (CDK12–cyclin K and DDB1; [2]): 4.223 and 4.06 and 4.046 and 4.132 and 4.096 and 3.922 and 3.897 and 4.118 | TR-FRET signal, individual replicate (CDK12–cyclin K and DDB1; [3]): 4.301 and 4.232 and 4.095 and 4.244 and 4.268 and 3.98 and 3.937 and 4.179 | TR-FRET signal at compound concentration 993.601 nM (CDK12–cyclin K and DDB1; compound concentration 993.601 nM, raw replicate titration data): 4.301 and 4.232 and 4.095 and 4.244 and 4.268 and 3.98 and 3.937 and 4.179 and 4.188 and 3.896 and 3.831 and 3.928 and 4.083 and 4.021 and 4.231 and 4.144 and 3.981 | TR-FRET signal at compound concentration 993.601 nM (CDK12–cyclin K and DDB1; compound concentration 993.601 nM, raw titration data): 4.301 and 4.232 and 4.095 and 4.244 and 4.268 and 3.98 and 3.937 and 4.179 and 4.188 and 3.896 and 3.831 and 3.928 and 4.083 and 4.021 and 4.231 and 4.144 and 3.981 | TR-FRET signal at compound concentration (CDK12–cyclin K and DDB1; [3]): 4.301 and 4.232 and 4.095 and 4.244 and 4.268 and 3.98 and 3.937 and 4.179 | TR-FRET signal, individual replicate (CDK12–cyclin K and DDB1; [4]): 4.322 and 4.194 and 4.162 and 4.144 and 4.309 and 4.034 and 4.299 | TR-FRET signal at compound concentration 2001.6 nM (CDK12–cyclin K and DDB1; compound concentration 2001.6 nM, raw replicate titration data): 4.322 and 4.194 and 4.162 and 4.144 and 4.309 and 4.034 and 4.299 and 4.197 and 3.982 and 3.892 and 3.93 and 4.094 and 4.059 and 4.292 and 4.196 and 4.177 and 4.087 | TR-FRET signal at compound concentration 2001.6 nM (CDK12–cyclin K and DDB1; compound concentration 2001.6 nM, raw titration data): 4.322 and 4.194 and 4.162 and 4.144 and 4.309 and 4.034 and 4.299 and 4.197 and 3.982 and 3.892 and 3.93 and 4.094 and 4.059 and 4.292 and 4.196 and 4.177 and 4.087 | TR-FRET signal at compound concentration (CDK12–cyclin K and DDB1; [4]): 4.322 and 4.194 and 4.162 and 4.144 and 4.309 and 4.034 and 4.299 | cyclin K abundance (label-free MS) (cyclin K; individual replicates, sheet EDF7): 122.337 and 71.6906 | cyclin K abundance (label-free MS) (cyclin K; [5]): 122.337 and 71.6906 | CCNK peptide count (DMSO-normalised) (cyclin K; [6]): 0.06684 and 0.03988 | average CCNK peptide count (cyclin K; sheet EDF7): 97.0136
